Assay results from article PMC11040327 (RSC Advances, 2024).
Read-outs that look alike come from different tables or passages of the source.

Columns and labels:
HCT-116 cells [1] = assay: MTT cytotoxicity assay against HCT-116 cells; assay type: cell-based
VEGFR2 = VEGFR2 (Homo sapiens, UniProt P35968); assay: VEGFR2 kinase inhibition assay; assay type: biochemical; details: for inhibition at 10 µM: read-out: VEGFR2 % Of inhibition at [10 μM], 10 μM compound
HCT-116 cells [2] = assay: Annexin V/PI flow cytometry for apoptosis in HCT-116 cells; assay type: cell-based; details: treated at IC50 for 48 h
[3] = Homo sapiens, HCT-116, 48 h, read-out: IC50 (μM) ± SD, cytotoxicity against HCT-116 cells, HCT-116 cells, MTT assay, 48 h, three independent trials

Sequence of VEGFR2 (P35968 20-1356): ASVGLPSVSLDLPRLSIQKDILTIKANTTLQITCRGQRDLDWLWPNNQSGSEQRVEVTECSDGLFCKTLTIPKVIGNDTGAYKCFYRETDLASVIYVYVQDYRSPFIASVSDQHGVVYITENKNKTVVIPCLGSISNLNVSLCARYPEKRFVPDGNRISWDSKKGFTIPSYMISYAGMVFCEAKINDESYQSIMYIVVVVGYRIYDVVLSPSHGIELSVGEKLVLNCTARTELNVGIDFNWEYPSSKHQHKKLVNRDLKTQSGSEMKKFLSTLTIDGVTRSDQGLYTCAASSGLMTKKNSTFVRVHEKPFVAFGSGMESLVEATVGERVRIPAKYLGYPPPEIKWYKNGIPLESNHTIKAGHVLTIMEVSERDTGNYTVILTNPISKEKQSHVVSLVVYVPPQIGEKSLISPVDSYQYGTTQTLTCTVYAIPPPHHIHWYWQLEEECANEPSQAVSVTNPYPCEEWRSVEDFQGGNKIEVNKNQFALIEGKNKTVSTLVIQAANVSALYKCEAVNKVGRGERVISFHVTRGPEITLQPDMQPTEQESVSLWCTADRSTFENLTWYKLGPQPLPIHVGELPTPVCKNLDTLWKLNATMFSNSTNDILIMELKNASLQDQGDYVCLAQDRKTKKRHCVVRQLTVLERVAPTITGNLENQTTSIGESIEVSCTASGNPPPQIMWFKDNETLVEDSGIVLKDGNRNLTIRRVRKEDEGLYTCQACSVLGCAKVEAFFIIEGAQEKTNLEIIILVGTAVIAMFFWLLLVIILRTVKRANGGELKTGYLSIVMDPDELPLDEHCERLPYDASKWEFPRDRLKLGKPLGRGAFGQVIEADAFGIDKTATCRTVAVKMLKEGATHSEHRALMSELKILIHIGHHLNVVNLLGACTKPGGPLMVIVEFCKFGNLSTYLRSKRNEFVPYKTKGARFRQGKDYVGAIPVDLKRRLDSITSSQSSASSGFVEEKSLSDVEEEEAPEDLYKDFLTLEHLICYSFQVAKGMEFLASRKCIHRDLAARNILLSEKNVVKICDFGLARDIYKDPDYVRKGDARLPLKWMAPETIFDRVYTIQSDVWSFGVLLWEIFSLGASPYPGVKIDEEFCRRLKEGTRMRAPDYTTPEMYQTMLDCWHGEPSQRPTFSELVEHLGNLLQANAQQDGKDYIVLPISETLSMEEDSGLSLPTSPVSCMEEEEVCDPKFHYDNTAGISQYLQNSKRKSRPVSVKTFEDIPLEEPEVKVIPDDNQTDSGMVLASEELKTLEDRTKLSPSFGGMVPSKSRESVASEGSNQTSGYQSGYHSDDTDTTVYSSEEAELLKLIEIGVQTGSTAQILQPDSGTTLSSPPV

| SMILES | IC50 (HCT-116 cells [1]; [3]) | further results |
| --- | --- | --- |
| NNC(=O)CCn1nc(Cc2ccccc2)c2ccccc2c1=O [Compound 5, 3-(4-benzyl-1-oxophthalazin-2(1H)-yl) propanehydrazide] | 13.8 ± 0.2 µM | – |
| C=CCNC(=O)CCn1nc(Cc2ccccc2)c2ccccc2c1=O [Compound 7a, N-allyl-3-(4-benzyl-1-oxophthalazin-2(1H)-yl)propanamide] | 34.8 ± 1.9 µM | – |
| O=C(CCn1nc(Cc2ccccc2)c2ccccc2c1=O)N1CCOCC1 [Compound 7b, 4-benzyl-2-(3-morpholino-3-oxopropyl) phthalazin-1(2H)-one] | 24.3 ± 1.5 µM | – |
| CCCCNC(=O)CCn1nc(Cc2ccccc2)c2ccccc2c1=O [Compound 7f, 3-(4-benzyl-1-oxophthalazin-2(1H)-yl)-N-butylpropanamide] | 18.8 ± 0.6 µM | – |
| COc1ccc(/C=N\NC(=O)CNC(=O)CCn2nc(Cc3ccccc3)c3ccccc3c2=O)cc1 [Compound 13c, (Z)-3-(4-benzyl-1-oxophthalazin-2(1H)-yl)-N-(2-(2-(4-methoxybenzylidene) hydrazinyl)-2-oxoethyl)propanamide] | 0.64 ± 0.05 µM | VEGFR2 % Of inhibition at [10 μM] (VEGFR2; 10 μM compound, 10 µM): 96.4 ± 2.8%; IC50 (VEGFR2; VEGFR2 IC50 [nM] ± SD, five concentrations, three replicates): 19.8 ± 0.6 nM; inhibition at 10 µM (VEGFR2): 95.2% |
| O=C(CCn1nc(Cc2ccccc2)c2ccccc2c1=O)NCC(=O)N/N=C\c1ccc([N+](=O)[O-])cc1 [Compound 13a, (Z)-3-(4-benzyl-1-oxophthalazin-2(1H)-yl)-N-(2-(2-(4-nitrobenzylidene) hydrazinyl)-2-oxoethyl)propanamide] | 45.7 ± 1.8 µM | – |
| CNC(=O)c1cc(Oc2ccc(NC(=O)Nc3ccc(Cl)c(C(F)(F)F)c3)cc2)ccn1 [Sorafenib, reference compound] | 2.93 µM | IC50 (HCT-116 cells [1]; read-out: IC50 (μM) ± SD, cytotoxicity against HCT-116 cells, HCT-116 cells, MTT assay, 48 h, three independent trials): 3.23 ± 0.03 µM |
| O=C(CCn1nc(Cc2ccccc2)c2ccccc2c1=O)N1CCCCC1 [Compound 7d, 4-benzyl-2-(3-oxo-3-(piperidin-1-yl)propyl) phthalazin-1(2H)-one] | – | apoptosis induction, fold versus untreated cells (HCT-116 cells [2]): 23.6 fold; inhibition at 10 µM (VEGFR2): 97.6% |
